From patent publication US20250009889A1, “CYCLIC PEROXIDES AS PRODRUGS FOR SELECTIVE DELIVERY OF AGENTS” (The Regents of the University of California, priority 2021, published 2025)
Entries after “also recorded” stand apart in the source; their conditions may differ.

Assays:
[1] = test system: P. falciparum parasites (W2 strain); assay: Growth inhibition of cultured P. falciparum parasites (antiplasmodial activity); type: cell-based; details: Plasmodium falciparum, Erythrocyte, in human red blood cells, 48 h incubation, flow cytometry, read-out: IC50 against cultured P. falciparum parasites
Protocol: Plasmodium falciparum EC50 Determinations
The growth inhibition assay for P. falciparum was conducted as described previously with minor modifications. Briefly, P. falciparum strain W2 synchronized ring-stage parasites were cultured in human red blood cells in 96-well flat-bottom culture plates at 37° C., adjusted to 1% parasitemia and 2% hematocrit under an atmosphere of 3% O2, 5% CO2, and […] in a final volume of 0.1 mL per well in RPMI-1640 media supplemented with 0.5% Albumax, 2 mM L-glutamine, and […] in the presence of various concentrations of inhibitors. […] Following 48 h of incubation, the cells were fixed by adding 0.1 mL of 2% formaldehyde in phosphate buffered saline, pH=7.4 (PBS). Parasite growth was evaluated by flow cytometry on a FACsort (Becton Dickinson) equipped with AMS-1 loader (Cytek Development) after staining with 1 nM of the DNA dye YOYO-1 (Molecular Probes) in 100 mM NH4Cl, 0.1% Triton x-100 in 0.8% NaCl. Parasitemias were determined from dot plots (forward scatter vs fluorescence) using CELLQUEST software (Becton Dickinson). EC50 values for growth inhibition were determined from plots of percentage control parasitemia over inhibitor concentration using GraphPad Prism software.

[2] = Fe(II)-fragmentation assay followed by UPLC/MS; type: physicochemical; details: ferrous-ammonium sulfate with pH 7.4 Tris buffer; for fragmentation of the trioxolane / conversion to the common cyclohexanone intermediate A on exposure to Fe^2+: UPLC/MS
Protocol: Fe(II)-Fragmentation Assay To 1 mL of trioxolane analog in DMSO (1 mM) at 37° C. was added 1 mL of Tris containing 50 mM ferrous ammonium sulfate. At various time points, 40 μL aliquots of the resulting mixture were removed and spun down in a mini centrifuge for 20 seconds, 20 μL of the supernatant was removed and 5 μL was injected into the UPLC. The concentration of the fragments was determined by UV from UPLC (290 nm). The resulting UV curves were plotted using GraphPad Prism software.

Row | Compound | IC50 [1] | fragmentation of the trioxolane / conversion to the common cyclohexanone intermediate A on exposure to Fe^2+ ([2]; 37° C.) | alternate bicyclo[2.2.1]heptan-2-one product detected (regioselectivity of peroxide scission) [2] | rate of conversion to intermediate A relative to comparator 6a [2] | time point by which the conjugate is fully consumed ([2]; 37° C.)
1 | O=C(O[C@@H]1CCC[C@]2(C1)OOC1(O2)C2CC3CC(C2)CC1C3)N1CCCCC1C(O)c1cc(C(F)(F)F)nc2c(C(F)(F)F)cccc12 (stereo partly drawn) [6a, reference compound] | 17 nM | rapid; also recorded: within minutes to clean conversion |  |  | 
2 | O=C(O[C@@H]1CCC[C@]2(C1)OOC1(CC3CCC1C3)O2)N1CCCCC1C(O)c1cc(C(F)(F)F)nc2c(C(F)(F)F)cccc12 (stereo partly drawn) [6f] | 74 nM | rapid; also recorded: within minutes to clean conversion | No detectable quantity | moderately faster | ≤ 11 min
3 | O=C(O[C@@H]1CCC[C@]2(C1)OOC1(CC3CCC1CC3)O2)N1CCCCC1C(O)c1cc(C(F)(F)F)nc2c(C(F)(F)F)cccc12 (stereo partly drawn) [6g] | 24 nM |  |  |  | 
4 | O=C(O[C@@H]1CCC[C@]2(C1)OOC1(O2)C2CCCC1CCC2)N1CCCCC1C(O)c1cc(C(F)(F)F)nc2c(C(F)(F)F)cccc12 (stereo partly drawn) [6h] | 24 nM |  |  |  | 
